Several values for one entry are separate records, joined by “and”; a condition that tells them apart may be missing. Equal values may be shown once.
Key:
human 5-HT6 receptor = target: T1, human 5-HT6 receptor (Homo sapiens, UniProt P50406); assay: 5-HT6 receptor radioligand binding assay ([3H]-LSD, CHO-K1 membranes)
T1 construct: purchased PerkinElmer; host or cells: CHO-K1 cells, stably transfected (membrane preparation)
Procedure: 5-HT6R binding affinity and cholinesterase (AChE/BuChE) inhibitory activity. We evaluated the pharmacological properties of the final compounds 12–19 in vitro according to the previously described, well-established protocols. Their affinities for recombinant human 5-HT6 receptors (h5-HT6R) were tested in a radioligand binding assay and the inhibitory potencies against human recombinant AChE (hAChE) and BuChE isolated from human plasma (hBuChE) in the spectrophotometric Ellman’s assay. […].
We prepared 10 mM of stock solutions of tested compounds in DMSO. Serial dilutions of compounds were prepared in a 96-well microplate in assay buffers using the automated pipetting system epMotion 5070 (Eppendorf). Each compound was tested in 8 concentrations from 10^−5 to 10^−12 M (final concentration).
The radioligand binding assay was performed using membranes from CHO-K1 cells stably transfected with the human 5-HT6 receptor (PerkinElmer) according to the previously described procedure. All assays were carried out in duplicates. We prepared 50 µL working solution of the tested compounds, 50 µL [^3H]-LSD (final concentration 2.5 nM) and 150 µL diluted membranes (15 µg protein per well) in assay buffer (50 mM Tris, pH 7.4, 10 mM MgCl2, 0.1 mM EDTA) and transferred them to polypropylene 96-well microplates using a 96-well pipetting station Rainin Liquidator (MettlerToledo). Methiothepin (10 μM) was used to define nonspecific binding. The microplate was covered with sealing tape, mixed and incubated for 60 min at 27 °C. The reaction was terminated by rapid filtration through GF/B filter mate presoaked with 0.5% polyethyleneimine for 30 min. Ten rapid washes with 200 µL 50 mM Tris buffer (4 °C, pH 7.4) were performed using the automated harvester system Harvester-96 MACH III FM (Tomtec). The filter mates were dried at 37 °C in a forced air fan incubator and then solid scintillator MeltiLex was melted on filter mates at 90 °C for 5 min. Radioactivity was counted in MicroBeta2 scintillation counter (PerkinElmer). Data were fitted to a one-site curve-fitting equation with Prism 6 (GraphPad Software) and Ki values were estimated from the Cheng−Prusoff equation.

[1] = target: T2, human recombinant AChE (hAChE) (Homo sapiens, UniProt P22303); assay: biochemical; details: for IC50: mean ± SEM of at least three experiments
T2 construct: purchased Sigma-Aldrich (Steinheim, Germany)
T2 sequence (P22303 32-614): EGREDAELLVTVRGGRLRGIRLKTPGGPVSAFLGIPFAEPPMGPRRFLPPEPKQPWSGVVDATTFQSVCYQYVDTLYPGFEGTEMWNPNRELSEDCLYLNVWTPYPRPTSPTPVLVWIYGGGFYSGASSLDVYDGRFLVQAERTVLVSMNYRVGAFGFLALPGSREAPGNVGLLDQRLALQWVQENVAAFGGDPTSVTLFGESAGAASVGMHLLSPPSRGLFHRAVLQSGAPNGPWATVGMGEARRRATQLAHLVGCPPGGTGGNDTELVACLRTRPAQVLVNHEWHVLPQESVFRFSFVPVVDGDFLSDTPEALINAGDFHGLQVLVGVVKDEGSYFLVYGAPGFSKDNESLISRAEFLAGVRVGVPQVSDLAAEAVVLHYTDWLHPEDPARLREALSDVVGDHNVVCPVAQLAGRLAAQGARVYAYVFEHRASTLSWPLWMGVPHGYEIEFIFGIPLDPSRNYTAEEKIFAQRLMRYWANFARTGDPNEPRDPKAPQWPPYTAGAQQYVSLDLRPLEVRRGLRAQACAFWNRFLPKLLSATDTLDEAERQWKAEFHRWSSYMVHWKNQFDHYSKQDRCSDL
Procedure: (§1) 5-HT6R binding affinity and cholinesterase (AChE/BuChE) inhibitory activity. […] Their affinities for recombinant human 5-HT6 receptors (h5-HT6R) were tested in a radioligand binding assay and the inhibitory potencies against human recombinant AChE (hAChE) and BuChE isolated from human plasma (hBuChE) in the spectrophotometric Ellman’s assay.
(§2) The assay was based on spectrophotometric Ellman’s method and was performed in 96-well microplates with the reagents purchased from Sigma-Aldrich (Steinheim, Germany) according to the previously described procedure. hBuChE was kindly donated by Vivonics (Bedford, MA, USA). […] After 5 minutes of the enzymatic reaction, the changes in absorbance were measured at 412 nm, using a microplate reader (SPECTROstar Nano; BMG Labtech, Ortenberg, Germany). First, compounds were tested at the screening concentration of 10 µM. Based on the equation 100 − (S/B) × 100 (where S and B were the respective enzyme activities with and without the test sample, respectively) the percentage inhibition of each enzyme for each compound was calculated. […] The IC50 values were calculated using nonlinear regression (GraphPad Prism 5; GraphPad Software, San Diego, CA, USA) by plotting the residual enzyme activities against the applied inhibitor concentration. […] All experiments were performed in triplicate.

[2] = target: T3, BuChE isolated from human plasma (hBuChE) (Homo sapiens, UniProt P06276); assay: biochemical; type: biochemical; details: for IC50: mean ± SEM of at least three experiments
T3 construct: BuChE isolated from human plasma (hBuChE); tissue Vivonics (Bedford, MA, USA), donated; host or cells: human plasma
T3 sequence (P06276 29-602): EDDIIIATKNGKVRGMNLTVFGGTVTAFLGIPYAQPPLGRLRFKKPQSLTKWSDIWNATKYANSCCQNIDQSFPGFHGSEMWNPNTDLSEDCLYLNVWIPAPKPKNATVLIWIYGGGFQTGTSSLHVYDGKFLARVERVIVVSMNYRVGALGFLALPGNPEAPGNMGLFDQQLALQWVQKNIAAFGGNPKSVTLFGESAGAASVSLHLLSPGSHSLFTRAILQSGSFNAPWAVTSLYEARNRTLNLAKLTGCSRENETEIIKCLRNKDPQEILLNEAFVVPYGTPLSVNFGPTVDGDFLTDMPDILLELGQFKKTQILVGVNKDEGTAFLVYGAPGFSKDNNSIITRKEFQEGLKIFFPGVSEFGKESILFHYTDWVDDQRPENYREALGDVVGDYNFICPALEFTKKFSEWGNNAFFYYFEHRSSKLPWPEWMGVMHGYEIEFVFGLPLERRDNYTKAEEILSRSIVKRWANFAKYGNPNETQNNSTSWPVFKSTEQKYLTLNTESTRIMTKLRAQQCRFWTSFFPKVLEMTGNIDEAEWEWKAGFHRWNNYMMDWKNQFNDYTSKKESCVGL
Procedure: as §1, §2

[3] = ABTS free radical scavenging assay
Description: Antioxidant activity. As mentioned before, oxidative stress is one of the components of AD pathomechanism and is characterised by an imbalance in the production of ROS. One of the mechanisms by which antioxidants reduce the concentration of ROS and therefore prevent or slow the cell damage caused by free radicals is scavenging them. Thus, we tested the scavenging ability of compounds 12–19 in the spectrophotometric ABTS assay that we used before. In this assay, the ability of compounds to scavenge ABTS^• radicals, which are generated from 2,2’-azino-bis(3-ethylbenzothiazoline-6-sulphonic acid) (ABTS), is measured. We tested the compounds at three concentrations: 30, 75 and 150 μM after 5, 30 and 60 min of incubation using Trolox, a water-soluble vitamin E analogue, as a reference (Table S1 in Supporting information).
The spectrophotometric ABTS assay was performed in 96-well microplates with the reagents purchased from Sigma-Aldrich (Steinheim, Germany) according to the previously described procedure. Stock solutions of the tested compounds (6.4 mM) and reagents were prepared in DMSO and water, respectively. 2,2′-Azino-bis(3-ethylbenzothiazoline-6-sulfonic acid) free radical (ABTS^•) was prepared by mixing the stock solution of ABTS (7 mM) and […] (2.45 mM) in ratio 1:1. The mixture was kept in the dark at 4 °C for 16 h. The obtained solution of (ABTS^•) was diluted with water 20 times. Then, the test compound or water or mixture of DMSO/water in the appropriate ratio (0.02 mL) was added to ABTS^• solution (0.18 mL). The three concentrations of the test compounds and Trolox were tested in triplicate: 0.15, 0.075 and 0.03 mM. Changes in absorbance were measured at 734 nm after 5, 30 and 60 min, using a microplate reader (SPECTROstar Nano; BMG Labtech, Ortenberg, Germany). Based on the equation ((A0 − A)/A0) × 100% (where A0 and A were the absorbances without and with the test compound, respectively) the percentage of free radical scavenging activity was calculated. The results are presented as mean ± SD.

[4] = Metabolic stability in human liver microsomes; type: in vitro ADME; details: for HLMs % Left: human, 2 h, pH 7.4
Procedure: Metabolic stability. […] For detailed results, including UPLC chromatograms and MS spectra, see the Supporting information (Figures S1–S16).
The metabolic stability was evaluated by incubation of compounds with human liver microsomes (Sigma-Aldrich, St. Louis, MO, USA) in 10 mM Tris–HCl buffer (pH 7.4) at 37 °C for 120 min in the presence of NADPH Regeneration System (Promega, Madison, WI, USA). The percentage of the remaining substrate and the most probable metabolic pathways were estimated by UPLC-MS analyses of the reaction mixtures.

[5] = Metabolic stability in mouse liver microsomes; type: in vitro ADME; details: 2 h, pH 7.4
CYP2D6 = target: T4, CYP2D6 (Homo sapiens, UniProt P10635); assay: CYP P450-Glo luminescence assay, CYP2D6; type: in vitro ADME
T4 construct: purchased Promega, Madison, WI, USA
T4 sequence (P10635 whole entry): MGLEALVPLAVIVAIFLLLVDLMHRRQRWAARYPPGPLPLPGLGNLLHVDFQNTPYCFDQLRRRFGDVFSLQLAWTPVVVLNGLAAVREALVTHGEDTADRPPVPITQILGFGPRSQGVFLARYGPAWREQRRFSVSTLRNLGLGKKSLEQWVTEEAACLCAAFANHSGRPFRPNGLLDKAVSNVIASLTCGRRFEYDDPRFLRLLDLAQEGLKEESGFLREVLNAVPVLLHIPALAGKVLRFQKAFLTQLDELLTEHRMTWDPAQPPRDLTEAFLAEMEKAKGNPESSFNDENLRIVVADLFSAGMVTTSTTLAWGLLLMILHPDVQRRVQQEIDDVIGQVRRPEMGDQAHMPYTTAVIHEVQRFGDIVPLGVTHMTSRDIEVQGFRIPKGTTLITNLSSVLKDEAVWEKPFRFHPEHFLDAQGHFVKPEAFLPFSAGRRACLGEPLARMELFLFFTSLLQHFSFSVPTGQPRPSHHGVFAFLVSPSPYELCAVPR
Description: Influence on CYP3A4 and CYP2D6 activity. Possible drug–drug interactions (DDIs) are an important issue for elderly patients, who are usually on multiple medications. They may result, among other things, from the interactions (inhibition or activation) of the cytochrome P450 isoenzymes, especially CYP3A4 and CYP2D6, which play the most significant role in drugs’ biotransformation. Therefore, to predict the potential influence of the studied compounds (14, 16 and 19) on the metabolism of other drugs, we used the CYP450 inhibition luminescence assay (Promega). […]. […] […]. […] […].
The influence on CYP 3A4 and 2D6 activity was estimated by respective luminescent CYP P450-Glo™ assay (Promega®, Madison, WI, USA). The compounds were tested in the concentration range of 0.1–25 µM. The results were compared to the respective reference CYP inhibitors: ketoconazole and quinidine.

[6] = test system: patients with moderate Alzheimer’s dementia; details: phase II, adjunct to cholinesterase inhibitors, moderate Alzheimer’s dementia ref 14, 15; cited from earlier work

T1 sequence (P50406 whole entry): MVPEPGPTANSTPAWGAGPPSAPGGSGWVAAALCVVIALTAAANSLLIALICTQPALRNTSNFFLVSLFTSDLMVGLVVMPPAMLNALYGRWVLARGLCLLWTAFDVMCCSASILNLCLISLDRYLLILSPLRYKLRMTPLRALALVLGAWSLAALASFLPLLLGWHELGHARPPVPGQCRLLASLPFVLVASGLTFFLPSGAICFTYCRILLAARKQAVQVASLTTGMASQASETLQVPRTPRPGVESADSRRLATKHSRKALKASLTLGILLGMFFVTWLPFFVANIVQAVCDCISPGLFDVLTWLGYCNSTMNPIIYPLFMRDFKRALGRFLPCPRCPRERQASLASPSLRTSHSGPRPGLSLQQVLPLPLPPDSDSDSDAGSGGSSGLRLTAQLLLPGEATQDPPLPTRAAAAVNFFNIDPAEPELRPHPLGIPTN

Row | Structure (SMILES) | Ki (human 5-HT6 receptor) [nM] | IC50 [1] [nM] | IC50 [2] | % of ABTS• reduction ± SD ([3]; 30 µM, 5 min) [%] | % of ABTS• reduction ± SD ([3]; 30 µM, 30 min) [%] | % of ABTS• reduction ± SD ([3]; 30 µM, 60 min) | % of ABTS• reduction ± SD ([3]; 75 µM, 5 min) [%] | % of ABTS• reduction ± SD ([3]; 75 µM, 30 min) [%] | % of ABTS• reduction ± SD ([3]; 75 µM, 60 min) [%] | % of ABTS• reduction ± SD ([3]; 150 µM, 5 min) [%] | % of ABTS• reduction ± SD ([3]; 150 µM, 30 min) [%] | % of ABTS• reduction ± SD ([3]; 150 µM, 60 min) | also measured
1 | O=S(=O)(c1ccccc1)n1ccc2c(OCCNCC3CCN(Cc4ccccc4)CC3)cccc21 [Compound 12, N-((1-Benzylpiperidin-4-yl)methyl)-2-((1-(phenylsulfonyl)-1H-indol-4-yl)oxy)ethan-1-amine] | 21 ± 1 | 3150 ± 81 | 2300 nM and 2320 nM | 8±1 | 9±0 | 10±0% | 13±0 | 19±0 | 24±1 | 20±3 | 30±3 | 39±4% | –
2 | O=S(=O)(c1ccccc1)n1ccc2c(OCCNCCC3CCN(Cc4ccccc4)CC3)cccc21 [Compound 13, 2-(1-Benzylpiperidin-4-yl)-N-(2-((1-(phenylsulfonyl)-1H-indol-4-yl)oxy)ethyl)ethan-1-amine] | 17 ± 2 | 2260 ± 91 | 1110 ± 31 nM | 5±1 | 5±1 | 6±1% | 9±1 | 11±1 | 13±1 | 20±0 | 29±1 | 34±1% | –
3 | O=S(=O)(c1ccccc1)N1CCc2c(OCCNCCCC3CCN(Cc4ccccc4)CC3)cccc21 [Compound 16, 3-(1-Benzylpiperidin-4-yl)-N-(2-((1-(phenylsulfonyl)indolin-4-yl)oxy)ethyl)propan-1-amine] | 598 ± 19 | 821 ± 14 | 487 ± 12 nM | 7±0 | 7±1 | 7±1% | 7±2 | 9±2 | 11±3 | 10±0 | 19±1 | 24±1% | main metabolic pathway [4]: oxidative deamination; HLMs % Left [4]: 84.40%; MLMs % Left [5]: 84.48%; inhibition at 0.1 µM (CYP2D6; human, CYP2D6 enzyme in the luminescent P450-Glo assay (Promega), 0.1 µM): ~20%
4 | O=c1[nH]c2c(OCCNCC3CCN(Cc4ccccc4)CC3)cccc2n1Cc1ccccc1 [Compound 17, 1-Benzyl-4-(2-(((1-benzylpiperidin-4-yl)methyl)amino)ethoxy)-1,3-dihydro-2H-benzo[d]imidazol-2-one] | 136 ± 22 | – | – | 8±2 | 14±3 | 18±4% | 12±2 | 22±2 | 27±1 | 19±2 | 32±2 | 39±2% | inhibition at 10 µM ([1]; 10 µM concentration): 39.5%; inhibition at 10 µM ([2]; 10 µM concentration): 44.3%
5 | O=c1[nH]c2c(OCCNCCCC3CCN(Cc4ccccc4)CC3)cccc2n1Cc1ccccc1 [Compound 19, 1-Benzyl-4-(2-((3-(1-benzylpiperidin-4-yl)propyl)amino)ethoxy)-1,3-dihydro-2H-benzo[d]imidazol-2-one] | 480 ± 48 | 544 ± 15 | 613 ± 11 nM | 10±0 | 17±0 | 22±1% | 14±1 | 24±2 | 30±2 | 25±4 | 37±5 | 43±4% | main metabolic pathway [4]: oxidative deamination; HLMs % Left [4]: 94.00%; MLMs % Left [5]: 79.38%; influence on the activity of CYP2D6 (CYP2D6; 0.1 µM): did not influence the activity of CYP2D6; influence on the activity of CYP2D6 (CYP2D6; 1 µM): CYP2D6-activating effect
6 | Fc1ccc2c(CCNCc3cccc(OCC(F)(F)C(F)F)c3)c[nH]c2c1 [Idalopirdine] | – | – | – | – | – | – | – | – | – | – | – | – | effects on cognition [6]: positive effects on cognition
7 | Cc1c(C)c2c(c(C)c1O)CCC(C)(C(=O)O)O2 (centres unmarked) [Trolox, reference compound] | – | – | – | 59±2 | 59±2 | 59±2% and 59% | 100±0 | 100±0 | 100 | 100±0 | 100±0 | 100±0% and 100% | –
8 | O=S(=O)(c1ccccc1)c1cnc2c(N3CCNCC3)cccc2c1 [intepirdine] | – | – | – | – | – | – | – | – | – | – | – | – | effects on cognition [6]: positive effects on cognition

From paper PMC9409043, “Serotonin 5-HT6 Receptor Ligands and Butyrylcholinesterase Inhibitors Displaying Antioxidant Activity—Design, Synthesis and Biological Evaluation of Multifunctional Agents against Alzheimer’s Disease” (International Journal of Molecular Sciences, 2022)
